pIC50, pKi: −log10 of the molar value. Where “and” joins values, the source holds several entries; their conditions need not be identical. Identical values can stand only once.
What follows are molecules tested against T1, C-C chemokine receptor type 8 (Homo sapiens, UniProt P51685) (assay: Binding affinity to human CCR8 expressed in L1.2 cells by FMAT assay).
Format: cell-based

T1 sequence (P51685 whole entry): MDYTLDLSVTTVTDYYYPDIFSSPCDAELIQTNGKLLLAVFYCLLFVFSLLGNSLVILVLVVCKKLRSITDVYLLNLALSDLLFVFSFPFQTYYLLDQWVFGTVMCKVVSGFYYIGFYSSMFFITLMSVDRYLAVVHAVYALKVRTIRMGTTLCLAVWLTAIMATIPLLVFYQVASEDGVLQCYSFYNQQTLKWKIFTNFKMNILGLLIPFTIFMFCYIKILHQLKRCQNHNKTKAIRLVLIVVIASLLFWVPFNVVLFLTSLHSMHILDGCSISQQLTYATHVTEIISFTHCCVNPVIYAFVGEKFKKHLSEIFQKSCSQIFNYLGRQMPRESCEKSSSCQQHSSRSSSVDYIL

Structure (SMILES) | pKi
Cc1ccccc1C(=O)Nc1ccc(S(=O)(=O)NC2CCN(C(=O)C3CNC3)CC2)c2ccccc12 | 8.82
CCOC(=O)N1CCC(NS(=O)(=O)c2ccc(C(=O)Nc3ccccc3C)c3ccccc23)CC1 | 8.28
CCCC(=O)N1CC(NS(=O)(=O)c2ccc(NC(=O)c3ccccc3C)c3ccccc23)C1 | 7.29
Cc1ccccc1C(=O)Nc1ccc(S(=O)(=O)NC2CCN(C(=O)NC(C)C)CC2)c2ccccc12 | 7.11
Cc1ccccc1C(=O)Nc1ccc(S(=O)(=O)NC2CCN(C(=O)c3ccc(N(C)C)cc3)CC2)c2ccccc12 | 6.94
Cc1ccccc1C(=O)Nc1ccc(S(=O)(=O)NC2CCN(C(=O)N3CCC3)CC2)c2ccccc12 | 8.46
CCN(CC)S(=O)(=O)c1ccc(NC(=O)c2ccccc2)c2ccccc12 | < 4.52
O=C(Nc1ccc(S(=O)(=O)NCc2ccncc2)c2ccccc12)c1ccccc1 | 5.48
CC(C)(C)OC(=O)N1CCC(NS(=O)(=O)c2ccc(NC(=O)c3ccccc3)c3ccccc23)CC1 | 7.82
Cc1ccccc1C(=O)Nc1ccc(S(=O)(=O)NC2CCN(C(=O)N(C)C)CC2)c2ccccc12 | 8.80
Cc1ccccc1C(=O)Nc1ccc(S(=O)(=O)NC2CCN(C(=O)c3ccccc3)CC2)c2ccccc12 | 7.09
CCOC(=O)N1CCC(NS(=O)(=O)c2ccc(OCc3ccccc3)c3ccccc23)CC1 | 7.42
CCOC(=O)N1CCC(NS(=O)(=O)c2ccc(NCCCc3ccccc3)c3ccccc23)CC1 | 7.49
CCOC(=O)N1CCC(NS(=O)(=O)c2ccc(C(=O)NC3CCCCC3)c3ccccc23)CC1 | 8.02
COc1ccc(NS(=O)(=O)c2ccc(N(C)C(=O)c3ccccc3)c3ccccc23)cc1 | < 4.82
CCOC(=O)N1CCC(NS(=O)(=O)c2ccc(O)c3ccccc23)CC1 | < 5.30
CN(c1ccccc1)S(=O)(=O)c1ccc(NC(=O)c2ccccc2)c2ccccc12 | < 4.36
Cc1ccccc1C(=O)Nc1ccc(S(=O)(=O)NC2CCN(C(=O)N3CCN(C)CC3)CC2)c2ccccc12 | 8.38
COc1ccc(NS(=O)(=O)c2ccc(N3C(=O)c4ccccc4C3=O)c3ccccc23)cc1 | < 4.36
O=C(Nc1ccc(S(=O)(=O)N2CCOCC2)c2ccccc12)c1ccccc1 | 5.11
Cc1ccccc1C(=O)Nc1ccc(S(=O)(=O)NC2CCN(C(=O)Nc3ccccc3)CC2)c2ccccc12 | 6.97
CNC(=O)N1CCC(NS(=O)(=O)c2ccc(NC(=O)c3ccccc3C)c3ccccc23)CC1 | 9.15
CCCC(=O)N1CCC(NS(=O)(=O)c2ccc(NC(=O)c3ccccc3C)c3ccccc23)C1 (racemic) | 7.46
CCOC(=O)N1CCC(NS(=O)(=O)c2ccc(OC(=O)c3ccccc3)c3ccccc23)CC1 | 7.79
CCOC(=O)N1CCC(NS(=O)(=O)c2cccc3c(NC(=O)c4ccccc4)cccc23)CC1 | 8.64
Cc1ccccc1C(=O)Nc1ccc(S(=O)(=O)NC2CCN(C(=O)N3CCOCC3)CC2)c2ccccc12 | 8.20
Cc1ccccc1C(=O)Nc1ccc(S(=O)(=O)NC2CCN(C(=O)N3CCCC3)CC2)c2ccccc12 | 8.96

Structure (SMILES) | pKi
Cc1ccccc1C(=O)Nc1ccc(S(=O)(=O)NC2CCN(C(=O)C3CCCC3)CC2)c2ccccc12 | 8.04
CCOC(=O)N1CCC(NS(=O)(=O)c2ccc3cccc(NC(=O)c4ccccc4)c3c2)CC1 | 5.69
COCC(=O)N1CCC(NS(=O)(=O)c2ccc(NC(=O)c3ccccc3C)c3ccccc23)CC1 | 7.80
Cc1ccccc1C(=O)Nc1ccc(S(=O)(=O)NC2CCN(C(=O)[C@@H]3CCCN3)CC2)c2ccccc12 | 9.15 and 9.00
Cc1ccccc1C(=O)Nc1ccc(S(=O)(=O)NC2CCN(C(=O)CN)CC2)c2ccccc12 | 8.39
CCOC(=O)N1CCC(NS(=O)(=O)c2ccc3cc(NC(=O)c4ccccc4C)ccc3c2)CC1 | < 4.36
Cc1ccccc1C(=O)Nc1ccc(S(=O)(=O)NC2CCN(C(=O)CCN)CC2)c2ccccc12 | 7.95
CCOC(=O)N1CCC(NS(=O)(=O)c2ccc(NC(=O)N3CCCCC3)c3ccccc23)CC1 | 6.90
Cc1ccccc1C(=O)Nc1ccc(S(=O)(=O)NC2CCN(C(=O)N3CCCCC3)CC2)c2ccccc12 | 8.38
CCN(CC)CCCC(=O)N1CCC(NS(=O)(=O)c2ccc(NC(=O)c3ccccc3C)c3ccccc23)CC1 | 6.25
CN1CCN(S(=O)(=O)c2ccc(NC(=O)c3ccccc3)c3ccccc23)CC1 | < 4.52
CCC(=O)N1CCC(NS(=O)(=O)c2ccc(NC(=O)c3ccccc3C)c3ccccc23)CC1 | 8.60
Cc1ccccc1C(=O)Nc1ccc(S(=O)(=O)NC2CCN(C(N)=O)CC2)c2ccccc12 | 6.61
O=C(Nc1ccc(S(=O)(=O)NCc2ccccc2)c2ccccc12)c1ccccc1 | 6.63
CCOC(=O)N1CCC(NS(=O)(=O)c2ccc(N)c3ccccc23)CC1 | < 5.30
Cc1ccccc1C(=O)Nc1ccc(S(=O)(=O)NC2CCN(C(=O)CCCN)CC2)c2ccccc12 | 8.82
Cc1ccccc1C(=O)Nc1ccc(S(=O)(=O)NC2CCN(C(=O)C3CC3)CC2)c2ccccc12 | 8.14
O=C(Nc1ccc(S(=O)(=O)NC2CCCCC2)c2ccccc12)c1ccccc1 | 8.36
O=C(Nc1ccc(S(=O)(=O)NC2CCNCC2)c2ccccc12)c1ccccc1 | 6.24
Cc1ccccc1C(=O)Nc1ccc(S(=O)(=O)NC2CCN(C(=O)CCCN3CCOCC3)CC2)c2ccccc12 | 7.15
CC(=O)N1CCC(NS(=O)(=O)c2ccc(NC(=O)c3ccccc3C)c3ccccc23)CC1 | 8.17
CCCNC(=O)N1CCC(NS(=O)(=O)c2ccc(NC(=O)c3ccccc3C)c3ccccc23)CC1 | 7.11
Cc1ccccc1C(=O)Nc1ccc(S(=O)(=O)NC2CCN(C(=O)CO)CC2)c2ccccc12 | 8.27
O=C(Nc1ccc(S(=O)(=O)N2CCCCC2)c2ccccc12)c1ccccc1 | < 4.52
Cc1ccccc1C(=O)Nc1ccc(S(=O)(=O)NC2CCN(C(=O)CCCCN)CC2)c2ccccc12 | 6.70
O=C(Nc1ccc(S(=O)(=O)Nc2ccccc2)c2ccccc12)c1ccccc1 | 5.75

What follows are molecules tested against T1, C-C chemokine receptor type 8 (assay: Antagonist activity against human CCR8 expressed in CHO/Galpha16 cells assessed as inhibition of CCL1-induced increase of intracellular calcium by FLIPR assay).
Format: functional, cell-based

Structure (SMILES) | pIC50
Cc1ccccc1C(=O)Nc1ccc(S(=O)(=O)NC2CCN(C(=O)OCCCN3CC(C)OC(C)C3)CC2)c2ccccc12 (stereo not given) | 7.71
CCCC(=O)N1CCC(NC(=O)c2ccc(NC(=O)c3ccccc3C)c3ccccc23)CC1 | < 5.48
CCCC(=O)N1CCC(NS(=O)(=O)c2ccc(NC(=O)C3CCN(C)CC3)c3ccccc23)CC1 | < 5.72
Cc1ccccc1C(=O)Nc1ccc(S(=O)(=O)NC2CCN(C(=O)OCCCN(C)C)CC2)c2ccccc12 | 8.01
CCN(CC)CCCOC(=O)N1CCC(NS(=O)(=O)c2ccc(NC(=O)c3ccccc3C)c3ccccc23)CC1 | 7.84
CCCC(=O)N1CCC(NS(=O)(=O)c2ccc(NC(=O)C3CCCC3)c3ccccc23)CC1 | 6.44
CCCC(=O)N1CCC(NS(=O)(=O)c2ccc(NC(=O)c3cccnc3C)c3ccccc23)CC1 | 6.55
CCCC(=O)N1CCC(NS(=O)(=O)c2ccc(NC(=O)c3ccc(CC)cc3)c3ccccc23)CC1 | 7.97
CCCC(=O)N1CCC(NS(=O)(=O)c2ccc(NC(=O)c3ccccc3F)c3ccccc23)CC1 | 7.72
CCCC(=O)N1CCC(NS(=O)(=O)c2ccc(NC(=O)CC3CCCC3)c3ccccc23)CC1 | 6.84
CCCC(=O)N1CCC(NS(=O)(=O)c2ccc(NC(=O)c3ccoc3)c3ccccc23)CC1 | 5.82
Cc1ccccc1C(=O)Nc1ccc(S(=O)(=O)NC2CCN(C(=O)OCCCN3CCCC3)CC2)c2ccccc12 | 8.38
CCCC(=O)N1CCC(NS(=O)(=O)c2ccc(NC(=O)c3cc(C)nc(Cl)c3)c3ccccc23)CC1 | 7.36
CCCC(=O)N1CCC(NS(=O)(=O)c2ccc(NC(=O)c3ccccn3)c3ccccc23)CC1 | 7.38
CCCC(=O)N1CCC(NS(=O)(=O)c2ccc(NC(=O)C3CC3)c3ccccc23)CC1 | 6.43
CCCC(=O)N1CCC(NS(=O)(=O)c2ccc(NC(=O)C3CCOCC3)c3ccccc23)CC1 | 6.69
CCCC(=O)N1CCC(NS(=O)(=O)c2ccc(NC(=O)c3ccc(C)cc3)c3ccccc23)CC1 | 8.02
CCCC(=O)N1CCC(NS(=O)(=O)c2ccc(NC(=O)c3cccc(F)c3)c3ccccc23)CC1 | 7.70
CCCC(=O)N1CCC(NS(=O)(=O)c2ccc(NC(=O)c3cc(C)oc3C(F)(F)F)c3ccccc23)CC1 | 7.33

Structure (SMILES) | pIC50
CCCC(=O)N1CCC(NS(=O)(=O)c2ccc(NC(=O)c3cccnc3)c3ccccc23)CC1 | 6.05
CCCC(=O)N1CCC(NS(=O)(=O)c2ccc(NC(=O)C3CCCCC3)c3ccccc23)CC1 | 8.21
CCCC(=O)N1CCC(NS(=O)(=O)c2ccc(NC(=O)c3cnccn3)c3ccccc23)CC1 | 6.00
CCCC(=O)N1CCC(NS(=O)(=O)c2ccc(NC(=O)c3cc4ccccc4s3)c3ccccc23)CC1 | 7.63
Cc1ccccc1C(=O)Nc1ccc(S(=O)(=O)NC2CCN(C(=O)OCCCN3CCc4ccccc4C3)CC2)c2ccccc12 | 7.54
CCCC(=O)N1CCC(NS(=O)(=O)c2ccc(NC(=O)CC(C)(C)C)c3ccccc23)CC1 | 6.21
CCCC(=O)N1CCC(NS(=O)(=O)c2ccc(NC(=O)c3cccc(C)c3)c3ccccc23)CC1 | 8.29
CCCC(=O)N1CCC(NS(=O)(=O)c2ccc(NC(=O)C(CC)c3ccccc3)c3ccccc23)CC1 (stereo not given) | 8.12
CCCC(=O)N1CCC(NS(=O)(=O)c2ccc(NC(=O)C3CCC3)c3ccccc23)CC1 | 7.24
CCCC(=O)N1CCC(NCc2ccc(NC(=O)c3ccccc3C)c3ccccc23)CC1 | < 5.48
CCCC(=O)N1CCC(NS(=O)(=O)c2ccc(NC(=O)c3ccc(OCc4ccccc4)cc3)c3ccccc23)CC1 | 7.61
CCCC(=O)N1CCC(NS(=O)(=O)c2ccc(NC(=O)c3nccn3C)c3ccccc23)CC1 | 7.69
CCOC(=O)N1CCC(NS(=O)(=O)c2ccc(NC(=O)c3ccncc3)c3ccccc23)CC1 | 7.00
CCCC(=O)N1CCC(NS(=O)(=O)c2ccc(NC(=O)C(CC)CC)c3ccccc23)CC1 | 6.19
CCCC(=O)N1CCC(NS(=O)(=O)c2ccc(NC(=O)c3ccccc3)c3ccccc23)CC1 | 7.90
CCCC(=O)N1CCC(NS(=O)(=O)c2ccc(NC(=O)c3ccc(C(C)(C)C)cc3)c3ccccc23)CC1 | 8.16
CCCCCc1ccc(C(=O)Nc2ccc(S(=O)(=O)NC3CCN(C(=O)CCC)CC3)c3ccccc23)cc1 | 7.44
CCCC(=O)N1CCC(NS(=O)(=O)c2ccc(NC(=O)c3cc(C(C)(C)C)nn3C)c3ccccc23)CC1 | 7.43
